Experimental findings from ChEMBL document CHEMBL1129842, “ATP-sensitive potassium channel openers: Synthesis and antihypertensive activity of 4-bicyclyloxybenzopyrans” (1997) are described below.

The test system of assay [1] is Rattus norvegicus. In words: Antihypertensive activity in spontaneously hypertensive rats (SHR''s) was evaluated after oral administration; ED50 mmHg. It counts as functional.
The subject of assay [2] is Rattus norvegicus. In words: Potassium channel opening activity is expressed as area under curve (AUC), determined in spontaneously hypertensive rats (SHR's) after oral administration. Format: functional.
Where [3] appears, read: Rattus norvegicus, po, read-out: ED50.

For `CN1N=C(OC2c3ccc([N+](=O)[O-])cc3OC(C)(C)C2O)C2CC2C1=O` (racemic), in the assay with Rattus norvegicus [1] (setting [3]), the ED50 (as a rule, the dose that gives a 50% effect, or the effect in half of the subjects) was greater than 0.3 mg/kg.

`CN1N=C(O[C@@H]2c3cc(C#N)ccc3OC(C)(C)[C@@]2(C)O)[C@@H]2C[C@@H]2C1=O`: the ED50 with Rattus norvegicus [1] (setting [3]) was found to be 0.0023 mg/kg. Further, the ECAUC0.2 in the assay with Rattus norvegicus [2] stood at 0.021 µM.

On to `CN1N=C(OC2c3cc([N+](=O)[O-])ccc3OC(C)(C)C2O)C2CC2C1=O` (racemic), for which the ED50 in the assay on Rattus norvegicus [1] (setting [3]) was found to be 0.049 mg/kg.

On to `Cn1nc(OC2c3cc(C#N)ccc3OC(C)(C)C2O)c2ccccc2c1=O` (racemic), for which the ED50 in the assay with Rattus norvegicus [1] (setting [3]) was greater than 10 mg/kg.

With `CC1(C)Oc2ccc(C#N)cc2C(N2CCCC2=O)C1O` (racemic) [CROMAKALIM], the ED50 in the assay on Rattus norvegicus [1] (setting [3]) came to 0.31 mg/kg. In addition, the ECAUC0.2 in the assay with Rattus norvegicus [2] was determined as 2.8 µM.

`CN1N=C(O[C@@H]2c3cc(C(F)(F)C(F)(F)F)ccc3OC(C)(C)[C@H]2O)[C@@H]2C[C@@H]2C1=O` (racemic): in the assay with Rattus norvegicus [1] (setting [3]), the ED50 came out at 0.047 mg/kg.

In the assay on Rattus norvegicus [1], `CN1N=C(OC2c3cc(C#N)ccc3OC(C)(C)C2O)C2CC2C1=O` (racemic; form 1) yielded an ED50 greater than 1 mg/kg.

`CN1N=C(O[C@@H]2c3cc(C#N)ccc3OC(C)(C)[C@H]2O)C2CC2C1=O` (single isomer, unassigned; (-)): the ED50 in the assay with Rattus norvegicus [1] (setting [3]) is 0.029 mg/kg. In addition, the ECAUC0.2 in the assay on Rattus norvegicus [2] turned out to be 0.18 µM.

Consider `CN1N=C(OC2c3cc(C#N)ccc3OC(C)(C)C2(C)O)C2CC2C1=O` (racemic), for which the ED50 in the assay with Rattus norvegicus [1] (setting [3]) is 0.0042 mg/kg.

With `CC1(C)Oc2ccc(C#N)cc2[C@@H](N2CCCC2=O)[C@@H]1O` [LEVCROMAKALIM], the 50% effective dose (ED50) in the assay on Rattus norvegicus [1] (setting [3]) stood at 0.14 mg/kg. This compound returned an ECAUC0.2 with Rattus norvegicus [2] of 1.6 µM.

With `Cn1nc(O[C@@H]2c3cc(C#N)ccc3OC(C)(C)[C@H]2O)ccc1=O`, the ED50 in the assay with Rattus norvegicus [1] (setting [3]) was found to be 0.0064 mg/kg. The compound further registered an ECAUC0.2 with Rattus norvegicus [2] of 0.16 µM.

For the compound `Cn1nc(OC2c3cc(C#N)ccc3OC(C)(C)C2O)ccc1=O` (racemic), the ED50 in the assay on Rattus norvegicus [1] (setting [3]) was 0.023 mg/kg. The compound further registered an ECAUC0.2 with Rattus norvegicus [2] of 0.25 µM.

`Cn1nc(OC2c3cc(C#N)ccc3OC(C)(C)C2O)c2c(c1=O)CCC2` (racemic): in the assay on Rattus norvegicus [1] (setting [3]), the ED50 was determined as 0.86 mg/kg.

Consider `CN1N=C(N[C@@H]2c3cc(C#N)ccc3OC(C)(C)[C@H]2O)[C@@H]2C[C@@H]2C1=O`, for which the ED50 in the assay on Rattus norvegicus [1] (setting [3]) is 0.0065 mg/kg.

As to `CN1N=C(O[C@@H]2c3cc(C#N)ccc3OC(C)(C)[C@H]2O)C2C(C1=O)C2(C)C` (mixture of isomers), the ED50 in the assay with Rattus norvegicus [1] (setting [3]) was greater than 0.1 mg/kg.

Regarding `CN1N=C(OC2c3cc(C#N)ccc3OC(C)(C)C2O)C2CC2C1=O` (racemic; form 2), the 50% effective dose (ED50) in the assay on Rattus norvegicus [1] was 0.047 mg/kg. This compound displayed an ECAUC0.2 in the assay on Rattus norvegicus [2] of 0.39 µM.
